According to patent publication US10577363B2, “Substituted piperidine compounds” (EPIZYME, INC., priority 2014, dated 2020):

Columns and labels:
SMYD3 [1] = target: T1, SMYD3 (Homo sapiens (Human), UniProt Q9H7B4); experiment: SMYD3 biochemical assay (SPA, 3H-SAM methylation of MEKK2 protein substrate); conditions: read-out: SMYD3 Biochem IC50*
Procedure, shortened: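 Native full-length human SMYD3 (E. coli-expressed, tags removed) was preincubated with compound for 30 min at room temperature in 25 mM Tris-Cl pH 8.0, 1 mM TCEP, 0.005% BSG, 0.005% Tween 20. Reaction was started with 3H-SAM plus GST-MEKK2, quenched with 100 uM unlabeled SAM, and read by SPA scintillation counting.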

SMYD3 [2] = target: T1, SMYD3; experiment: SMYD3 cell assay (Trimethyl-MEKK2 In-Cell Western in 293T/17 cells); type: cell-based; conditions: read-out: SMYD3 Cell IC50*
Procedure, shortened: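 In-Cell Western ratio of trimethyl-Lys260 MEKK2 to anti-flag signal; percent inhibition from DMSO and maximum-inhibition controls, IC50 by non-linear regression, triplicates.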

T1 sequence (Q9H7B4 whole entry): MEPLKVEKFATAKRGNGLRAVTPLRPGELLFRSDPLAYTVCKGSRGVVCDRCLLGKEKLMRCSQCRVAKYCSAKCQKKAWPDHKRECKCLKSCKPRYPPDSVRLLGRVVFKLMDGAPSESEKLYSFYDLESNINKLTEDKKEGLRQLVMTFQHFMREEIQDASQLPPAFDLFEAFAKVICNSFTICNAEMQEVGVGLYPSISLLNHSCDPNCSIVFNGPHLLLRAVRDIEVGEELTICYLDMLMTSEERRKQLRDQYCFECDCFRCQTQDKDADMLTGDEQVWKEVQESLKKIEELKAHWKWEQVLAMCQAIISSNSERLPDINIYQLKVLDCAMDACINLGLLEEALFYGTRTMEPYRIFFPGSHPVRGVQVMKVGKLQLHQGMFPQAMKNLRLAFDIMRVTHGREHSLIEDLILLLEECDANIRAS

| SMILES | IC50 (SMYD3 [1]) | IC50 (SMYD3 [2]) |
| --- | --- | --- |
| CC1CN(S(=O)(=O)N2[C@@H]3CC[C@H]2C[C@@H](NC(=O)c2cc(C4CC4)on2)C3)CCN1 (stereo partly drawn) [compound 887, 5-cyclopropyl-N-((1R,3r,5S)-8-((3-methylpiperazin-1-yl)sulfonyl)-8-azabicyclo[3.2.1]octan-3-yl)isoxazole-3-carboxamide] | 12.2 nM | 87.8 nM |
| COCCCN1C2CCC1CN(S(=O)(=O)N1[C@@H]3CC[C@H]1C[C@@H](NC(=O)c1cc(C4CC4)on1)C3)C2 [compound 888, 5-cyclopropyl-N-((1R,3r,5S)-8-((8-(3-methoxypropyl)-3,8-diazabicyclo[3.2.1]octan-3-yl)sulfonyl)-8-azabicyclo[3.2.1]octan-3-yl)isoxazole-3-carboxamide] | 12.4 nM | 118 nM |
| CCN(CC)C1CCN(S(=O)(=O)N2[C@@H]3CC[C@H]2C[C@@H](NC(=O)c2cc(C4CC4)on2)C3)CC1 [compound 889, 5-cyclopropyl-N-((1R,3r,5S)-8-((4-(diethylamino)piperidin-1-yl)sulfonyl)-8-azabicyclo[3.2.1]octan-3-yl)isoxazole-3-carboxamide] | 12.7 nM | 216 nM |
| CC1CC(N)CCN1S(=O)(=O)N1CC[C@H](NC(=O)c2cc(C3CC3)on2)C[C@@H]1C (stereo partly drawn) [compound 890, N-((2S,4S)-1-((4-amino-2-methylpiperidin-1-yl)sulfonyl)-2-methylpiperidin-4-yl)-5-cyclopropylisoxazole-3-carboxamide] | 13.2 nM | 239 nM |
| NC1[C@@H]2CC[C@H]1CN(S(=O)(=O)N1[C@@H]3CC[C@H]1CC(NC(=O)c1cc(C4CC4)on1)C3)C2 (stereo partly drawn) [compound 891, N-((1R,3R,5S)-8-(((1R,5S)-8-amino-3-azabicyclo[3.2.1]octan-3-yl)sulfonyl)-8-azabicyclo[3.2.1]octan-3-yl)-5-cyclopropylisoxazole-3-carboxamide] | 13.3 nM | 145 nM |
| O=C(N[C@H]1C[C@H]2CC[C@@H](C1)N2S(=O)(=O)N1CCC(NCc2ccc(C(F)(F)F)cc2)CC1)c1cc(C2CC2)on1 [compound 892, 5-cyclopropyl-N-((1R,3r,5S)-8-((4-((4-(trifluoromethyl)benzyl)amino)piperidin-1-yl)sulfonyl)-8-azabicyclo[3.2.1]octan-3-yl)isoxazole-3-carboxamide] | 13.5 nM | 268 nM |
| CN1CCC(NS(=O)(=O)N2[C@@H]3CC[C@H]2C[C@@H](NC(=O)c2cc(C4CC4)on2)C3)CC1 [compound 893, 5-cyclopropyl-N-((1R,3r,5S)-8-(N-(1-methylpiperidin-4-yl)sulfamoyl)-8-azabicyclo[3.2.1]octan-3-yl)isoxazole-3-carboxamide] | 13.7 nM | 239 nM |
| CN1CCC([C@@H](Cc2ccccc2)S(=O)(=O)N2[C@@H]3CC[C@H]2C[C@@H](NC(=O)c2cc(C4CC4)on2)C3)CC1 [compound 894, 5-cyclopropyl-N-((1R,3R,5S)-8-(((R)-1-(1-methylpiperidin-4-yl)-2-phenylethyl)sulfonyl)-8-azabicyclo[3.2.1]octan-3-yl)isoxazole-3-carboxamide] | 13.9 nM | 280 nM |
| CN1CC2CCC1CN2S(=O)(=O)N1[C@@H]2CC[C@H]1C[C@@H](NC(=O)c1cc(C3CC3)on1)C2 [compound 895, 5-cyclopropyl-N-((1R,3r,5S)-8-((5-methyl-2,5-diazabicyclo[2.2.2]octan-2-yl)sulfonyl)-8-azabicyclo[3.2.1]octan-3-yl)isoxazole-3-carboxamide] | 13.9 nM | 186 nM |
| CC1(N)CCC(S(=O)(=O)N2[C@@H]3CC[C@H]2C[C@@H](NC(=O)c2cc(C4CC4)on2)C3)CC1 (stereo partly drawn) [compound 896, N-((1R,3R,5S)-8-(((1r,4R)-4-amino-4-methylcyclohexyl)sulfonyl)-8-azabicyclo[3.2.1]octan-3-yl)-5-cyclopropylisoxazole-3-carboxamide] | 14 nM | 86.6 nM |
| O=C(N[C@H]1C[C@H]2CC[C@@H](C1)N2S(=O)(=O)NC1CCNCC1)c1cc(C2CC2)on1 [compound 897, 5-cyclopropyl-N-((1R,3r,5S)-8-(N-(piperidin-4-yl)sulfamoyl)-8-azabicyclo[3.2.1]octan-3-yl)isoxazole-3-carboxamide] | 14.1 nM | 423 nM |
| C[C@@H](NC1CCN(S(=O)(=O)N2CC[C@H](NC(=O)c3cc(C4CC4)on3)C[C@@H]2C)CC1)c1ccccc1 [compound 898, 5-cyclopropyl-N-((2S,4S)-2-methyl-1-((4-(((R)-1-phenylethyl)amino)piperidin-1-yl)sulfonyl)piperidin-4-yl)isoxazole-3-carboxamide] | 14.3 nM | 240 nM |
| COCCCN(C)C1CCN(S(=O)(=O)N2[C@@H]3CC[C@H]2C[C@@H](NC(=O)c2cc(C4CC4)on2)C3)CC1 [compound 899, 5-cyclopropyl-N-((1R,3r,5S)-8-((4-((3-methoxypropyl)(methyl)amino)piperidin-1-yl)sulfonyl)-8-azabicyclo[3.2.1]octan-3-yl)isoxazole-3-carboxamide] | 14.5 nM | 168 nM |
| CN[C@H]1CC[C@@H](S(=O)(=O)N2CC[C@@H](NC(=O)c3cc(C4CC4)on3)[C@@H](C)C2)CC1 [compound 900, 5-cyclopropyl-N-((3S,4R)-3-methyl-1-(((1s,4R)-4-(methylamino)cyclohexyl)sulfonyl)piperidin-4-yl)isoxazole-3-carboxamide] | 14.6 nM | 177 nM |
| CC1CNCCN1S(=O)(=O)N1[C@@H]2CC[C@H]1C[C@@H](NC(=O)c1cc(C3CC3)on1)C2 (stereo partly drawn) [compound 901, 5-cyclopropyl-N-((1R,3r,5S)-8-((2-methylpiperazin-1-yl)sulfonyl)-8-azabicyclo[3.2.1]octan-3-yl)isoxazole-3-carboxamide] | 15.1 nM | 97.7 nM |
| CCC1CNCCN1S(=O)(=O)N1[C@@H]2CC[C@H]1C[C@@H](NC(=O)c1cc(C3CC3)on1)C2 (stereo partly drawn) [compound 902, 5-cyclopropyl-N-((1R,3r,5S)-8-((2-ethylpiperazin-1-yl)sulfonyl)-8-azabicyclo[3.2.1]octan-3-yl)isoxazole-3-carboxamide] | 15.2 nM | 155 nM |
| CC1CC(CS(=O)(=O)N2CC[C@H](NC(=O)c3cc(C4CC4)on3)C[C@@H]2C)CC(C)N1 (stereo partly drawn) [compound 903, 5-cyclopropyl-N-((2S,4S)-1-(((2,6-dimethylpiperidin-4-yl)methyl)sulfonyl)-2-methylpiperidin-4-yl)isoxazole-3-carboxamide] | 16.2 nM | 277 nM |
| O=C(N[C@H]1C[C@H]2CC[C@@H](C1)N2S(=O)(=O)N1CC2CCC(C1)N2Cc1ccccc1)c1cc(C2CC2)on1 [compound 904, N-((1R,3r,5S)-8-((8-benzyl-3,8-diazabicyclo[3.2.1]octan-3-yl)sulfonyl)-8-azabicyclo[3.2.1]octan-3-yl)-5-cyclopropylisoxazole-3-carboxamide] | 16.9 nM | 395 nM |
| C[C@H](NC1CCN(S(=O)(=O)N2CC[C@H](NC(=O)c3cc(C4CC4)on3)C[C@@H]2C)CC1)c1ccccc1 [compound 905, 5-cyclopropyl-N-((2S,4S)-2-methyl-1-((4-(((S)-1-phenylethyl)amino)piperidin-1-yl)sulfonyl)piperidin-4-yl)isoxazole-3-carboxamide] | 17.1 nM | 331 nM |
| O=C(N[C@H]1C[C@H]2CC[C@@H](C1)N2S(=O)(=O)N1CCC(N2CCCC2)CC1)c1cc(C2CC2)on1 [compound 906, 5-cyclopropyl-N-((1R,3r,5S)-8-((4-(pyrrolidin-1-yl)piperidin-1-yl)sulfonyl)-8-azabicyclo[3.2.1]octan-3-yl)isoxazole-3-carboxamide] | 17.1 nM | 229 nM |
| CC1CN(S(=O)(=O)N2[C@@H]3CC[C@H]2C[C@@H](NC(=O)c2cc(C4CC4)on2)C3)C(C)CN1 (stereo partly drawn) [compound 907, 5-cyclopropyl-N-((1R,3r,5S)-8-((2,5-dimethylpiperazin-1-yl)sulfonyl)-8-azabicyclo[3.2.1]octan-3-yl)isoxazole-3-carboxamide] | 17.7 nM | 238 nM |
| C[C@H]1C[C@@H](NC(=O)c2cc(C3CC3)on2)CCN1S(=O)(=O)N1CCC(NCCN2CCOCC2)CC1 [compound 908, 5-cyclopropyl-N-((2S,4S)-2-methyl-1-((4-((2-morpholinoethyl)amino)piperidin-1-yl)sulfonyl)piperidin-4-yl)isoxazole-3-carboxamide] | 18.4 nM | 253 nM |
| C[C@H]1C[C@@H](NC(=O)c2cc(C3CC3)on2)CCN1S(=O)(=O)[C@@H]1CCCNC1 [compound 910, 5-cyclopropyl-N-((2S,4S)-2-methyl-1-(((R)-piperidin-3-yl)sulfonyl)piperidin-4-yl)isoxazole-3-carboxamide] | 19 nM | 186 nM |
| CC(C)c1cc(C(=O)N[C@H]2C[C@H]3CC[C@@H](C2)N3S(=O)(=O)N2CCC(N)CC2)no1 [compound 911, N-((1R,3r,5S)-8-((4-aminopiperidin-1-yl)sulfonyl)-8-azabicyclo[3.2.1]octan-3-yl)-5-isopropylisoxazole-3-carboxamide] | 20.5 nM | 144 nM |
| O=C(N[C@H]1C[C@H]2CC[C@@H](C1)N2S(=O)(=O)N1CCC(NCCCN2CCOCC2)CC1)c1cc(C2CC2)on1 [compound 912, 5-cyclopropyl-N-((1R,3r,5S)-8-((4-((3-morpholinopropyl)amino)piperidin-1-yl)sulfonyl)-8-azabicyclo[3.2.1]octan-3-yl)isoxazole-3-carboxamide] | 20.9 nM | 316 nM |
| C[C@H]1C[C@@H](NC(=O)c2cc(C3CC3)on2)CCN1S(=O)(=O)[C@H]1CCCNC1 [compound 913, 5-cyclopropyl-N-((2S,4S)-2-methyl-1-(((S)-piperidin-3-yl)sulfonyl)piperidin-4-yl)isoxazole-3-carboxamide] | 21.6 nM | 255 nM |
